Experimental data as given in ChEMBL document CHEMBL1148261, “Pharmacophore-based search, synthesis, and biological evaluation of anthranilic amides as novel blockers of the Kv1.5 channel” (Bioorg Med Chem Lett, 2004).

What was measured:
[1] = pKa value was determined; type: physicochemical
[2] = target: T1, Potassium voltage-gated channel subfamily A member 5 (Homo sapiens, UniProt P22460); experiment: Inhibitory effect against human voltage-gated potassium channel subunit Kv1.5 expressed in Xenopus oocytes; type: cell-based, Oocyte
[3] = target: T1, Potassium voltage-gated channel subfamily A member 5; experiment: Percent inhibition of human voltage-gated potassium channel subunit Kv1.5 expressed in Xenopus oocytes at 10 uM; type: cell-based; conditions: Oocyte
[4] = Oral bioavailability of compound in rats; type: ADME, organism-based; conditions: rat, in vivo

T1 sequence (P22460 whole entry): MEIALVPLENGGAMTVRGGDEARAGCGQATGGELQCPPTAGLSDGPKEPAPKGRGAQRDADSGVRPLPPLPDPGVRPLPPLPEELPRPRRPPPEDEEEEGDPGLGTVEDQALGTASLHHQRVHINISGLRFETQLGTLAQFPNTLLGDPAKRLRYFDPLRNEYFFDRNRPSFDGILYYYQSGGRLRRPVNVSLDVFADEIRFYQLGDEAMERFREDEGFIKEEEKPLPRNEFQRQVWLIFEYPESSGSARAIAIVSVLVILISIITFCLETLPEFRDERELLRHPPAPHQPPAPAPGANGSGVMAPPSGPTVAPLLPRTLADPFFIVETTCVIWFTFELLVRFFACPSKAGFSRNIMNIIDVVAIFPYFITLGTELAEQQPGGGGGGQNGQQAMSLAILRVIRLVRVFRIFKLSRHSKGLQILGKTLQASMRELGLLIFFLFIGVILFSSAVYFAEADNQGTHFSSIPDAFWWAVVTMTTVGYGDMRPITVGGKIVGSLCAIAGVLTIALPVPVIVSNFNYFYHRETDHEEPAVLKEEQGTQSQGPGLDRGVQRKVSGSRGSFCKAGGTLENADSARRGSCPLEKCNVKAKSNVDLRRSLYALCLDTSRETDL

IC50 [2] [µM] | SMILES | other results
4 | CC[C@H](NC(=O)c1ccccc1NS(=O)(=O)c1ccc(C(F)(F)F)cc1)c1ccccc1 | pKa [1]: 6.2
9 | CC[C@H](NC(=O)c1ccccc1NS(=O)(=O)c1cccc2cnccc12)c1ccccc1 | 
 | CC[C@H](NC(=O)c1ccccc1NS(=O)(=O)c1cccnc1)c1ccccc1 | inhibition [3]: 36%
 | CC[C@H](NC(=O)c1cc(OC)ccc1NS(=O)(=O)c1ccc(C)cc1)c1ccccc1 | pKa [1]: 7.5
3.8 | CC[C@H](NC(=O)c1cc(C(C)=O)ccc1NS(=O)(=O)c1ccc(C)cc1)c1ccccc1 | 
0.7 | CC[C@H](NC(=O)c1ccccc1NS(=O)(=O)c1ccc(C)cc1)c1ccccc1 | pKa [1]: 7.2
 | CC[C@H](NC(=O)c1cc(OCC2CC2)ccc1NS(=O)(=O)c1ccc(C)cc1)c1ccccc1 | inhibition [3]: 41%
 | CC[C@H](NC(=O)c1cc(OCN(C)C)ccc1NS(=O)(=O)c1ccc(C)cc1)c1ccccc1 | inhibition [3]: 15%
1.3 | CC[C@H](NC(=O)c1ccccc1NS(=O)(=O)c1ccccc1)c1ccccc1 | pKa [1]: 6.9
 | CC[C@H](NC(=O)c1cc(OCCOC)ccc1NS(=O)(=O)c1ccc(C)cc1)c1ccccc1 | inhibition [3]: 46%
3.8 | CC[C@H](NC(=O)c1cc(F)ccc1NS(=O)(=O)c1ccc(Cl)cc1)c1ccccc1 | pKa [1]: 6.5
1.6 | Cc1ccc(S(=O)(=O)Nc2ccccc2C(=O)NC(c2ccccc2)C2CC2)cc1 (configuration not stated) | 
5.6 | O=C(NCc1ccccc1)c1cc(Cl)ccc1NS(=O)(=O)c1ccc(Cl)cc1 | 
 | Cc1ccc(S(=O)(=O)Nc2ccccc2C(=O)N(Cc2ccccc2)Cc2cccnc2)cc1 | bioavailability [4]: 43%
10 | CC[C@H](NC(=O)c1ccccc1NS(=O)(=O)CC)c1ccccc1 | 
0.6 | CC[C@H](NC(=O)c1ccccc1NS(=O)(=O)c1cccc2cccnc12)c1ccccc1 | 
6.7 | Cc1ccc(S(=O)(=O)Nc2ccccc2C(=O)NCCc2ccccc2)cc1 | 
2.2 | Cc1ccc(S(=O)(=O)Nc2ccccc2C(=O)N(Cc2cccnc2)Cc2cccnc2)cc1 | 
